Molecules are shown by their SMILES. Some results are limits rather than exact numbers.

Data set [1] concerns Puccinia recondita f. sp. Tritici. Kind of data set: Puccinia recondita f. sp. tritici / wheat / leaf disc preventative (brown rust). The class given is in vivo. The following applies: foliar, 200 ppm in the applied formulation, wheat leaf segments cv. Kanzler, inoculated 1 day after application, compared to untreated, assessed 7 to 9 days after application, read-out: disease control. In outline:
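Sprayed at 200 ppm one day ahead of spore inoculation, wheat leaf segments of cultivar Kanzler sat on agar under 19° C., 75% relative humidity and alternating 12-hour light and dark. Efficacy was taken as percent disease control relative to untreated segments after 7 to 9 days.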

Data set [2] shares this test system. Kind of data set: Puccinia recondita f. sp. tritici / wheat / leaf disc curative (brown rust). In kind it is in vivo. Conditions: foliar, 200 ppm in the applied formulation, wheat leaf segments cv. Kanzler, applied 1 day after inoculation, compared to untreated, assessed 6 to 8 days after application, read-out: disease control. An outline of the steps: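 Segments of wheat (cultivar Kanzler) sit on agar and are spore-inoculated first; after one day in darkness at 19° C and 75% RH the diluted formulated compound is sprayed on. A 12 h photoperiod follows at the same temperature and humidity before disease is scored against untreated controls.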

Data set [3] relates to Phakopsora pachyrhizi. Kind of data set: Phakopsora pachyrhizi / soybean / leaf disc preventative (Asian soybean rust). Conditions: foliar, 200 ppm in the applied formulation, soybean leaf disks, inoculated one day after application, compared to untreated, assessed 12 to 14 days after application, read-out: disease control. The class given is in vivo. How it is done:
Leaf disks or leaf segments of various plant species are cut from plants grown in a greenhouse. The cut leaf disks or segments are placed in multiwell plates (24-well format) onto water agar. The leaf disks are sprayed with a test solution before (preventative) or after (curative) inoculation. Compounds to be tested are prepared as DMSO solutions (max. 10 mg/ml) which are diluted to the appropriate concentration with 0.025% Tween20 just before spraying. The inoculated leaf disks or segments are incubated under defined conditions (temperature, relative humidity, light, etc.) according to the respective test system. A single evaluation of disease level is carried out 3 to 14 days after inoculation, depending on the pathosystem. Percent disease control relative to the untreated check leaf disks or segments is then calculated.
Soybean leaf disks are placed on water agar in multiwell plates (24-well format) and sprayed with the formulated test compound diluted in water. One day after application leaf discs are inoculated by spraying a spore suspension on the lower leaf surface. After an incubation period in a climate cabinet of 24-36 hours in darkness at 20° C. and 75% rh leaf disc are kept at 20° C. with 12 h light/day and 75% rh. The activity of a compound is assessed as percent disease control compared to untreated when an appropriate level of disease damage appears in untreated check leaf disks (12 to 14 days after application).
The following compounds at 200 ppm in the applied formulation give at least 80% disease control in this test when compared to untreated control leaf disks under the same conditions, which show extensive disease development.

The subject of data set [4] is Glomerella lagenarium (Colletotrichum lagenarium). Kind of data set: Glomerella lagenarium (Colletotrichum lagenarium) liquid culture / cucumber / preventative (anthracnose). The following applies: Colletotrichum orbiculare; 20 ppm in the applied formulation; conidia in PDB nutrient broth, 24° C.; 3 to 4 days after application; compared to untreated; read-out: disease control (inhibition of growth measured photometrically). In kind it is cell-based. In outline:
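Test compound, diluted from DMSO, was mixed in microtiter wells with fungal conidia taken from cryogenic storage and suspended in PDB nutrient broth. After 3 to 4 days at 24 °C, photometric growth measurement gave antifungal activity as a percentage of the untreated control.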

By inhibition is commonly meant the relative decrease from the control value, in per cent. As a reminder, the melting point is the temperature, or range, at which the solid turns liquid. Consider `CCS(=O)(=O)N(Cc1ccc(-c2noc(C(F)(F)F)n2)cc1)C1CC1` [Compound 1.1, N-cyclopropyl-N-[[4-[5-(trifluoromethyl)-1,2,4-oxadiazol-3-yl]phenyl]methyl] ethanesulfonamide], for which the melting point was in the range of 86 to 88 °C. Besides, in data set [1], the pest or weed control at 200 ppm was no less than 80%. Also, the pest or weed control at 200 ppm in data set [2] is no less than 80%. Besides, in data set [3], the pest or weed control at 200 ppm is no less than 80%. Besides, in data set [4], the inhibition at 20 ppm is no less than 80%.
For `O=S(=O)(C1CC1)N(Cc1ccc(-c2noc(C(F)(F)F)n2)cc1)C1CC1` [Compound 1.2, N-cyclopropyl-N-[[4-[5-(trifluoromethyl)-1,2,4-oxadiazol-3-yl]phenyl]methyl] cyclopropanesulfonamide], the melting point lay in the range of 90 to 92 °C. Besides, the pest or weed control at 200 ppm in data set [1] was no less than 80%. In addition, the pest or weed control at 200 ppm in data set [3] was no less than 80%. Further, in data set [4], the inhibition at 20 ppm is no less than 80%.
For the compound `CCS(=O)(=O)N(Cc1ccc(-c2noc(C(F)(F)F)n2)cc1)OC` [Compound 1.3, N-methoxy-N-[[4-[5-(trifluoromethyl)-1,2,4-oxadiazol-3-yl]phenyl]methyl] ethanesulfonamide], the melting point lay in the range of 44 to 46 °C. For the same compound, the pest or weed control at 200 ppm in data set [1] was no less than 80%. Also, the pest or weed control at 200 ppm in data set [2] was no less than 80%. Moreover, the pest or weed control at 200 ppm in data set [3] is no less than 80%. Also, the inhibition at 20 ppm in data set [4] is no less than 80%.
Consider `CON(Cc1ccc(-c2noc(C(F)(F)F)n2)cc1)S(C)(=O)=O` [Compound 1.5, N-methoxy-N-[[4-[5-(trifluoromethyl)-1,2,4-oxadiazol-3-yl]phenyl]methyl] methanesulfonamide], for which the melting point was in the range of 94 to 96 °C. Besides, in data set [2], the pest or weed control at 200 ppm was no less than 80%. For the same compound, in data set [4], the inhibition at 20 ppm is no less than 80%.
`CS(=O)(=O)N(Cc1ccc(-c2noc(C(F)(F)F)n2)cc1)C1CC1` [Compound 1.8, N-cyclopropyl-N-[[4-[5-(trifluoromethyl)-1,2,4-oxadiazol-3-yl]phenyl]methyl] methanesulfonamide]: the melting point was in the range of 84 to 86 °C. For the same compound, in data set [1], the pest or weed control at 200 ppm is no less than 80%. Also, the pest or weed control at 200 ppm in data set [2] is no less than 80%. Also, the pest or weed control at 200 ppm in data set [3] is no less than 80%. Further, in data set [4], the inhibition at 20 ppm is no less than 80%.
`CN(Cc1ccc(-c2noc(C(F)(F)F)n2)cc1)S(=O)(=O)C1CC1` [Compound 1.10, N-methyl-N-[[4-[5-(trifluoromethyl)-1,2,4-oxadiazol-3-yl]phenyl]methyl] cyclopropanesulfonamide] yielded a melting point of 102 to 105 °C. In data set [1], the pest or weed control at 200 ppm is no less than 80%. For the same compound, the pest or weed control at 200 ppm in data set [2] is no less than 80%. In addition, the pest or weed control at 200 ppm in data set [3] is no less than 80%. For the same compound, the inhibition at 20 ppm in data set [4] was no less than 80%.
Take `CN(Cc1ccc(-c2noc(C(F)(F)F)n2)cc1)S(C)(=O)=O` [Compound 1.11, N-methyl-N-[[4-[5-(trifluoromethyl)-1,2,4-oxadiazol-3-yl]phenyl]methyl] methanesulfonamide]: the melting point lay within 103 to 105 °C. Moreover, in data set [1], the pest or weed control at 200 ppm is no less than 80%. Moreover, in data set [2], the pest or weed control at 200 ppm was no less than 80%. For the same compound, the pest or weed control at 200 ppm in data set [3] was no less than 80%. The inhibition at 20 ppm in data set [4] is no less than 80%.
Take `CN(C)S(=O)(=O)N(C)Cc1ccc(-c2noc(C(F)(F)F)n2)cc1` [Compound 1.12, N-(dimethylsulfamoyl)-N-methyl-1-[4-[5-(trifluoromethyl)-1,2,4-oxadiazol-3-yl]phenyl] methanamine]: the melting point is 77 to 79 °C. In data set [1], the pest or weed control at 200 ppm was no less than 80%. In data set [2], the pest or weed control at 200 ppm was no less than 80%. In addition, the pest or weed control at 200 ppm in data set [3] was no less than 80%. For the same compound, the inhibition at 20 ppm in data set [4] is no less than 80%.
For the compound `CCCNS(=O)(=O)N(C)Cc1ccc(-c2noc(C(F)(F)F)n2)cc1` [Compound 1.23, 3-[4-[[methyl (propylsulfamoyl)amino]methyl]phenyl]-5-(trifluoromethyl)-1,2,4-oxadiazole], the pest or weed control at 200 ppm in data set [1], in data set [2] and in data set [3] was no less than 80% in each case. The inhibition at 20 ppm in data set [4] was no less than 80%.
For `CON(Cc1ccc(-c2noc(C(F)(F)F)n2)c(F)c1)S(C)(=O)=O` [Compound 1.101, N-[[3-fluoro-4-[5-(trifluoromethyl)-1,2,4-oxadiazol-3-yl]phenyl]methyl]-N-methoxy-methanesulfonamide], the pest or weed control at 200 ppm in data set [2] and in data set [3] was no less than 80% in each case. In addition, in data set [4], the inhibition at 20 ppm was no less than 80%.
For the compound `CCN(Cc1ccc(-c2noc(C(F)(F)F)n2)c(F)c1)S(C)(=O)=O` [Compound 1.102, N-ethyl-N-[[3-fluoro-4-[5-(trifluoromethyl)-1,2,4-oxadiazol-3-yl]phenyl]methyl] methanesulfonamide], the pest or weed control at 200 ppm in data set [1], in data set [2] and in data set [3] was no less than 80% throughout. Further, the inhibition at 20 ppm in data set [4] is no less than 80%.
The compound `CCCS(=O)(=O)Nc1ccc(-c2noc(C(F)(F)F)n2)cc1` [Compound 2.38, N-[4-[5-(trifluoromethyl)-1,2,4-oxadiazol-3-yl]phenyl]propane-1-sulfonamide] had a melting point of 65 to 75 °C. Also, the pest or weed control at 200 ppm in data set [3] was no less than 80%. The inhibition at 20 ppm in data set [4] is no less than 80%.
Compound `O=S(=O)(NCc1ccc(-c2noc(C(F)(F)F)n2)cc1)c1ccccc1F` [Compound 3.7, 2-fluoro-N-[[4-[5-(trifluoromethyl)-1,2,4-oxadiazol-3-yl]phenyl]methyl] benzenesulfonamide] showed a melting point of 120 to 123 °C. Moreover, in data set [1], the pest or weed control at 200 ppm is no less than 80%. In data set [3], the pest or weed control at 200 ppm is no less than 80%. Also, the inhibition at 20 ppm in data set [4] is no less than 80%.
`O=S(=O)(NCc1ccc(-c2noc(C(F)(F)F)n2)cc1)N1CCOCC1` [Compound 3.8, N-[[4-[5-(trifluoromethyl)-1,2,4-oxadiazol-3-yl]phenyl]methyl] morpholine-4-sulfonamide] came in with a melting point of 108 to 110 °C. Further, the pest or weed control at 200 ppm in data set [1] is no less than 80%. Besides, the pest or weed control at 200 ppm in data set [2] was no less than 80%. Further, the inhibition at 20 ppm in data set [4] was no less than 80%.
`O=S(=O)(Nc1ccc(-c2noc(C(F)(F)F)n2)cc1)C1CC1` [Compound 3.33, N-[4-[5-(trifluoromethyl)-1,2,4-oxadiazol-3-yl]phenyl]cyclo-propanesulfonamide] displayed a melting point of 130 to 140 °C. The pest or weed control at 200 ppm in data set [1] was no less than 80%. Besides, the pest or weed control at 200 ppm in data set [3] was no less than 80%. Also, the inhibition at 20 ppm in data set [4] is no less than 80%.
Turning to `O=S(=O)(Nc1ccc(-c2noc(C(F)(F)F)n2)cc1)c1ccccc1` [Compound 3.35, N-[4-[5-(trifluoromethyl)-1,2,4-oxadiazol-3-yl]phenyl]benzene-sulfonamide], the melting point fell in the range of 115 to 130 °C. Also, the pest or weed control at 200 ppm in data set [1] is no less than 80%. In data set [3], the pest or weed control at 200 ppm was no less than 80%. In data set [4], the inhibition at 20 ppm is no less than 80%.
For the compound `CCN(C(C)c1ccc(-c2noc(C(F)(F)F)n2)cc1)S(C)(=O)=O` (centres unmarked) [Compound 4.1, N-ethyl-N-[1-[4-[5-(trifluoromethyl)-1,2,4-oxadiazol-3-yl]phenyl]ethyl] methanesulfonamide], the pest or weed control at 200 ppm in data set [1], in data set [2] and in data set [3] was no less than 80% each time. In addition, the inhibition at 20 ppm in data set [4] is no less than 80%.
On to `CON(C(C)Cc1ccc(-c2noc(C(F)(F)F)n2)cc1)S(C)(=O)=O` (centres unmarked) [Compound 4.2, N-methoxy-N-[1-methyl-2-[4-[5-(trifluoromethyl)-1,2,4-oxadiazol-3-yl]phenyl]ethyl] methanesulfonamide], for which the pest or weed control at 200 ppm in data set [1] and in data set [3] was no less than 80% throughout. For the same compound, the inhibition at 20 ppm in data set [4] is no less than 80%.
